According to patent US20220259252A1, “4'-ETHYNYL-2'-DEOXYADENOSINE DERIVATIVES AND THEIR USE IN HIV THERAPY” (priority 2019, published 2022):

Legend:
[1] = tested on: HIV pseudotyped virus (NL4-3 provirus, luciferase reporter), M184V, in U373 cells expressing human CD4 and CXCR4 or CCR5; format: cell-based; settings: PSV assay, luciferase signal after 3 days
[2] = tested on: HIV pseudotyped virus (NL4-3 provirus, luciferase reporter), WT, in U373 cells expressing human CD4 and CXCR4 or CCR5; assay: Pseudotyped virus (PSV) assay, WT; settings: Human immunodeficiency virus 1, NL43, U373 MG, 72 h, read-out: WT IC50
Excerpt: A pseudotyped virus assay (PSV) was used to assess the potency of the HIV inhibitor. Replication defective virus was produced by co-transfection of a plasmid containing an NL4-3 provirus [containing a mutation in the envelope open reading frame (ORF) and a luciferase reporter gene replacing the nef ORF] and a CMV-promoter expression plasmid containing an ORF for various HIV gp160 envelope clones. The harvested virus was stored at −80 C in small aliquots and the titer of the virus measured to produce a robust signal for antiviral assays.
The PSV assay was performed by using U373 cells stably transformed to express human CD4, the primary receptor for HIV entry and either human CXCR4 or human CCR5 which are the co-receptors required for HIV entry as target cells for infection. […] This dose-range was applied to U373 cells and the pre-made pseudotyped virus added. The amount of luciferase signal produced after 3 days of culture was used to reflect the level of pseudotyped virus infection. An IC50, or the concentration of inhibitor required to reduce PSV infection by 50% from the infection containing no inhibitor was calculated. […] IC50 values were determined from a 10 point dose response curve using 3-4-fold serial dilution for each compound, which spans a concentration range >1000 fold.
These values are plotted against the molar compound concentrations using the standard four parameter logistic equation:
y=((V max*x^n)/(K^n+x^n)+Y2
Y2=minimum y n=slope factor
Vmax=maximum y x=compound concentration [M]

| SMILES | IC50 [1] [nM] | IC50 [2] [nM] |
| --- | --- | --- |
| C#C[C@]1(CO)O[C@@H](n2cnc3c(N)nc(F)nc32)C[C@@H]1OC(=O)CCCC(=O)OC(COC(=O)CCCCCCCCCCCCC)COC(=O)CCCCCCCCCCCCC [Example 8, (2R,3S,5R)-5-(6-amino-2-fluoro-9H-purin-9-yl)-2-ethynyl-2-(hydroxymethyl)tetrahydrofuran-3-yl (1,3-bis(tetradecanoyloxy)propan-2-yl) glutarate] | 15000 | 1860 |
| C#C[C@]1(CO)O[C@@H](n2cnc3c(N)nc(F)nc32)C[C@@H]1OC(=O)CCCC(=O)OC(COC(=O)CCCCCC)COC(=O)CCCCCC [Example 7, (2R,3S,5R)-5-(6-amino-2-fluoro-9H-purin-9-yl)-2-ethynyl-2-(hydroxymethyl)tetrahydrofuran-3-yl (1,3-bis(heptanoyloxy)propan-2-yl) glutarate] | 1190 | 232 |
| C#C[C@]1(CO)O[C@@H](n2cnc3c(N)nc(F)nc32)C[C@@H]1O [EFdA, 4′-ethynyl-2-fluoro-2′-deoxyadenosine, reference compound] | 35.1 | 6.5 |
| C#C[C@]1(CO)O[C@@H](n2cnc3c(N)nc(F)nc32)C[C@@H]1OC(=O)CCCCCCCCCCCCC(=O)O [Example 3, 14-(((2R,3S,5R)-5-(6-amino-2-fluoro-9H-purin-9-yl)-2-ethynyl-2-(hydroxymethyl)tetrahydrofuran-3-yl)oxy)-14-oxotetradecanoic Acid] | 24.4 | 5.4 |
| C#C[C@]1(CO)O[C@@H](n2cnc3c(N)nc(F)nc32)C[C@@H]1OC(=O)CCCCCCCCCCCCCCCCCCC(=O)O [Example 2, 20-(((2R,3S,5R)-5-(6-amino-2-fluoro-9H-purin-9-yl)-2-ethynyl-2-(hydroxymethyl)tetrahydrofuran-3-yl)oxy)-20-oxoicosanoic Acid] | 35.7 | 6.4 |
| C#C[C@]1(CO)O[C@@H](n2cnc3c(N)nc(F)nc32)C[C@@H]1OC(=O)COCCOC [Example 4, (2R,3S,5R)-5-(6-amino-2-fluoro-9H-purin-9-yl)-2-ethynyl-2-(hydroxymethyl)tetrahydrofuran-3-yl 2-(2-methoxyethoxy)acetate] | 25.9 | 3.8 |
| C#C[C@]1(CO)O[C@@H](n2cnc3c(N)nc(F)nc32)C[C@@H]1OC(=O)COCCOCCOC [Example 5, (2R,3S,5R)-5-(6-amino-2-fluoro-9H-purin-9-yl)-2-ethynyl-2-(hydroxymethyl)tetrahydrofuran-3-yl 2-(2-(2-methoxyethoxy)ethoxy)acetate] | 22.1 | 5.5 |
| C#C[C@]1(CO)O[C@@H](n2cnc3c(N)nc(F)nc32)C[C@@H]1OC(=O)CCCCCCCCC(=O)O [Example 1, 10-(((2R,3S,5R)-5-(6-amino-2-fluoro-9H-purin-9-yl)-2-ethynyl-2-(hydroxymethyl)tetrahydrofuran-3-yl)oxy)-10-oxodecanoic Acid] | 348 | 78.4 |
| C#C[C@]1(CO)O[C@@H](n2cnc3c(N)nc(F)nc32)C[C@@H]1OC(=O)CNC(=O)CCCCCC [Example 6, (2R,3S,5R)-5-(6-amino-2-fluoro-9H-purin-9-yl)-2-ethynyl-2-(hydroxymethyl)tetrahydrofuran-3-yl heptanoylglycinate] | 11.4 | 2.2 |
